The inhibition of growth is the relative decrease from the control value, in per cent. A higher inhibition of growth goes with a response far below the control. As a reminder, the pest or weed control is the degree to which the test organism was suppressed or injured, in per cent. Low readings indicate weak suppression, high ones strong suppression. By melting point is commonly meant the temperature, or range, at which the solid turns liquid.

The subject of data set [1] is Glomerella lagenarium (Colletotrichum lagenarium). Put plainly: Fungicidal activity against Glomerella lagenarium (Colletotrichum lagenarium), liquid culture, cucumber, preventative (anthracnose). Type of data set: cell-based. The conditions noted are these: Colletotrichum orbiculare, liquid culture (PDB), growth inhibition measured photometrically 3-4 days after application, compared to untreated control. An outline of the steps: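 Glomerella lagenarium conidia in potato dextrose broth were exposed in 96-well plates to test compound diluted from DMSO stock with 0.025% Tween20 and incubated at 24 °C. Growth inhibition was read photometrically 3–4 days after application, as percent activity relative to untreated check.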

Data set [2] has as its system Puccinia recondita f. sp. tritici. Put plainly: Fungicidal activity against Puccinia recondita f. sp. tritici, wheat, leaf disc curative (brown rust). Type of data set: in vivo. The conditions noted are these: foliar, 144 h, wheat leaf segments, curative (applied 1 day after inoculation), 6-8 days after application, compared to untreated control. Summed up:
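Wheat cv. Kanzler leaf segments on agar, inoculated with brown rust spores and kept dark at 19 °C, 75% rh; formulated compound sprayed 1 day after inoculation (curative). Incubated 19 °C, 75% rh, 12 h light/dark; percent disease control vs untreated scored 6–8 days after application.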

Data set [3] shares this test system. Put plainly: Fungicidal activity against Puccinia recondita f. sp. tritici, wheat, leaf disc preventative (brown rust). It counts as in vivo. To be noted: foliar, wheat leaf segments, preventative (inoculated 1 day after application), 7-9 days after application, compared to untreated control. Summed up: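 Wheat cv. Kanzler leaf segments on water agar sprayed with compound (DMSO stock diluted in water), then inoculated with spore suspension 1 day later. Incubated at 19 °C, 75% rh, 12 h light/12 h dark; percent disease control versus untreated scored at 7-9 days after application.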

A further data set has as its system Phakopsora pachyrhizi. In words: Fungicidal activity against Phakopsora pachyrhizi, soybean, leaf disc preventative (Asian soybean rust). Type of data set: in vivo. The conditions noted are these: foliar, 288 h, 12-14 days after application, compared to untreated control. An outline of the steps: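 Soybean leaf discs on water agar were sprayed with compound diluted in water, then inoculated one day later with a spore suspension on the lower leaf surface. After 24-36 h dark at 20 °C, 75% rh, discs were held at 20 °C, 12 h light/day. Percent disease control versus untreated assessed 12-14 days post-application.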

In turn, `CC(C)(C)OC(=O)N1CCN(Cc2ccc(-c3noc(C(F)(F)F)n3)cc2)C(=O)C1` [Compound A-30, tert-butyl 3-oxo-4-[[4-[5-(trifluoromethyl)-1,2,4-oxadiazol-3-yl]phenyl]methyl]piperazine-1-carboxylate] came in with a melting point of 96 to 99 °C. The inhibition of growth at 20 ppm in data set [1] is not below 80%. In addition, the pest or weed control at 200 ppm in data set [2] is not below 80%. In data set [3], the pest or weed control at 200 ppm is not below 80%.
Compound `O=C1CCCCN1Cc1ccc(-c2noc(C(F)(F)F)n2)nc1` [Compound A-53, 1-[[6-[5-(trifluoromethyl)-1,2,4-oxadiazol-3-yl]-3-pyridyl]methyl]piperidin-2-one] displayed a melting point of 80 to 89 °C. The compound further yielded a pest or weed control at 200 ppm in data set [2] not below 80%. The compound further returned a pest or weed control at 200 ppm in data set [3] not below 80%.
Turning to `CCOC(=O)N1CC(=O)N(Cc2ccc(-c3noc(C(F)(F)F)n3)cc2)C(=O)C1` [Compound A-57, ethyl 3,5-dioxo-4-[[4-[5-(trifluoromethyl)-1,2,4-oxadiazol-3-yl]phenyl]methyl]piperazine-1-carboxylate], the melting point lay in the range of 89 to 92 °C. Further, in data set [1], the inhibition of growth at 20 ppm is not below 80%. In addition, the pest or weed control at 200 ppm in the data set on Phakopsora pachyrhizi is not below 80%. This compound returned a pest or weed control at 200 ppm in data set [3] not below 80%.
`CNC(=O)N1CC(=O)N(Cc2ccc(-c3noc(C(F)(F)F)n3)cc2)C(=O)C1` [Compound A-58, N-methyl-3,5-dioxo-4-[[4-[5-(trifluoromethyl)-1,2,4-oxadiazol-3-yl]phenyl]methyl]piperazine-1-carboxamide] gave a melting point of 148 to 153 °C. In data set [1], this compound returned an inhibition of growth at 20 ppm not below 80%. In the data set on Phakopsora pachyrhizi, this compound showed a pest or weed control at 200 ppm not below 80%. The compound also showed a pest or weed control at 200 ppm in data set [3] not below 80%.
Take `CC(C)(C)OC(=O)N1CC(=O)N(Cc2ccc(-c3noc(C(F)(F)F)n3)cc2)C(=O)C1` [Compound A-62, tert-butyl 3,5-dioxo-4-[[4-[5-(trifluoromethyl)-1,2,4-oxadiazol-3-yl]phenyl]methyl]piperazine-1-carboxylate]: the melting point lay in the range of 94 to 102 °C. In data set [1], this compound registered an inhibition of growth at 20 ppm not below 80%. The compound also had a pest or weed control at 200 ppm in data set [3] not below 80%.
For `O=C1CCON1Cc1ccc(-c2noc(C(F)(F)F)n2)c(F)c1F` [Compound A-66, 2-[[2,3-difluoro-4-[5-(trifluoromethyl)-1,2,4-oxadiazol-3-yl]phenyl]methyl]isoxazolidin-3-one], the inhibition of growth at 20 ppm in data set [1] was not below 80%. In addition, the pest or weed control at 200 ppm (in the data set with Phakopsora pachyrhizi; in data set [2]; in data set [3]) was not below 80% throughout.
In the case of `O=C1CCCCCN1Cc1ccc(-c2noc(C(F)(F)F)n2)c(F)c1` [Compound A-69, 1-[[3-fluoro-4-[5-(trifluoromethyl)-1,2,4-oxadiazol-3-yl]phenyl]methyl]azepan-2-one], the melting point is 80 to 84 °C. The compound also gave an inhibition of growth at 20 ppm in data set [1] not below 80%. In data set [3], this compound displayed a pest or weed control at 200 ppm not below 80%.
With `O=C1CCCCCN1Cc1ccc(-c2noc(C(F)(F)F)n2)cc1` [Compound A-70, 1-[[4-[5-(trifluoromethyl)-1,2,4-oxadiazol-3-yl]phenyl]methyl]azepan-2-one], the inhibition of growth at 20 ppm in data set [1] is not below 80%. Besides, the pest or weed control at 200 ppm (in the data set with Phakopsora pachyrhizi; in data set [2]; in data set [3]) was not below 80% in each case.
Consider `CON1CCN(c2ccc(-c3noc(C(F)(F)F)n3)cc2)C1=O` [Compound C-3, 1-methoxy-3-[4-[5-(trifluoromethyl)-1,2,4-oxadiazol-3-yl]phenyl]imidazolidin-2-one], for which the melting point lay in the range of 185 to 190 °C. The compound further yielded an inhibition of growth at 20 ppm in data set [1] not below 80%.
`O=S1(=O)CCCN1c1ccc(-c2noc(C(F)(F)F)n2)cc1` [Compound D-1, 2-[4-[5-(trifluoromethyl)-1,2,4-oxadiazol-3-yl]phenyl]-1,2-thiazolidine 1,1-dioxide]: in data set [1], the inhibition of growth at 20 ppm was not below 80%. Also, the pest or weed control at 200 ppm (in the data set with Phakopsora pachyrhizi; in data set [2]; in data set [3]) was not below 80% throughout.
